Test [1] has as its target T1, purified Na^+ channel protein (Bos taurus, UniProt A5D7U4+F1MJW3+P55270).
T1 construct: purifying a membrane protein from bovine kidney cortex and bovine trachea epithelia apical membranes; from tissue
T1 sequence (P55270 1-650): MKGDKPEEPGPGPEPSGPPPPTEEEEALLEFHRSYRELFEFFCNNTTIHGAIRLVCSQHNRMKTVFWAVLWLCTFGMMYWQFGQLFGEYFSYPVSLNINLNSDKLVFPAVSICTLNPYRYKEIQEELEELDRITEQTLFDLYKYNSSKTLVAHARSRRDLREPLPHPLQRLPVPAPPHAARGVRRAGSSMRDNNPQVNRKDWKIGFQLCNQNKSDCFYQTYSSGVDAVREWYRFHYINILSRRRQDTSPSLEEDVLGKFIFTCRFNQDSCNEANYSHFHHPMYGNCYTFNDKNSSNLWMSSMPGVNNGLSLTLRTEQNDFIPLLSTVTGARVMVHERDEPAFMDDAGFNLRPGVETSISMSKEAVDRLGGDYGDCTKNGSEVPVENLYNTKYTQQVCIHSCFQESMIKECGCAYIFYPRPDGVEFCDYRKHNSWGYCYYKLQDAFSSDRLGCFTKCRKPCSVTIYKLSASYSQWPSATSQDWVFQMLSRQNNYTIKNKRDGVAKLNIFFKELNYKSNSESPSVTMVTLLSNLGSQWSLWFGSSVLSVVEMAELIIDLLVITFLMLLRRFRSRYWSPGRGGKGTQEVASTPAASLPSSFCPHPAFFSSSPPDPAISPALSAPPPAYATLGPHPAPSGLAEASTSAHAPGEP
T1 sequence (A5D7U4 1-641): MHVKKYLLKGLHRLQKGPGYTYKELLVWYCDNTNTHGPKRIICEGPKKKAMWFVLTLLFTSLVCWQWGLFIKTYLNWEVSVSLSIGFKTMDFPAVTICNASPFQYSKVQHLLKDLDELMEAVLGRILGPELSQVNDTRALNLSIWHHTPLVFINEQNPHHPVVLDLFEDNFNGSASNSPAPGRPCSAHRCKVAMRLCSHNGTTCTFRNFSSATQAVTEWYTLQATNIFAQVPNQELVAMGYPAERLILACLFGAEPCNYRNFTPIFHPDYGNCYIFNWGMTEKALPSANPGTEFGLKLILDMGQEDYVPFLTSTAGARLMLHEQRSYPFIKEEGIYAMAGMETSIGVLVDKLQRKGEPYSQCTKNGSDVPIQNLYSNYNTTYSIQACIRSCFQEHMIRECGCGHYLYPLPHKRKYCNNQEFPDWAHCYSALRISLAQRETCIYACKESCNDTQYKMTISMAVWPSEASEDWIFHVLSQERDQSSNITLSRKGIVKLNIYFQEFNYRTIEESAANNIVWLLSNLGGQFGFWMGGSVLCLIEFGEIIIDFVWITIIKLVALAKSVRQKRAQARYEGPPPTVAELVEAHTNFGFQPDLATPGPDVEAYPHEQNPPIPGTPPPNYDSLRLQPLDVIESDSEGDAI
T1 sequence (F1MJW3 1-652): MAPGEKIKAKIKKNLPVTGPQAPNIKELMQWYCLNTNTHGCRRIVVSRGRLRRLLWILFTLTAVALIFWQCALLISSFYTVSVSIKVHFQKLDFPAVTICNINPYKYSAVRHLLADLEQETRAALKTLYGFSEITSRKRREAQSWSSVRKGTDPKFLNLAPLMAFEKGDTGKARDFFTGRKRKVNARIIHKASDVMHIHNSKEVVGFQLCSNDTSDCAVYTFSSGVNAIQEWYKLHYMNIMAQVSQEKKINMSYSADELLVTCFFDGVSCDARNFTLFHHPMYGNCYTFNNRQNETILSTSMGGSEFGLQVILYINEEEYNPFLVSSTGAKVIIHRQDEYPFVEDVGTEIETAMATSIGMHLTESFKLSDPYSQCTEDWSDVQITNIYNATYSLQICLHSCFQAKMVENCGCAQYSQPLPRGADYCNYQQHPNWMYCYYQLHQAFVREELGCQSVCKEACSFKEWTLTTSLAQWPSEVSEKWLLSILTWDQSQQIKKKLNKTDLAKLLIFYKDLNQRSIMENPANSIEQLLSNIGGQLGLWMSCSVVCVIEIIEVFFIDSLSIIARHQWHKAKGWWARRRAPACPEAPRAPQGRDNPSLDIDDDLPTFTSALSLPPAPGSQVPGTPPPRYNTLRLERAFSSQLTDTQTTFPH
Nature of the test: Amiloride inhibition of purified reconstituted channel. The format is biochemical, bovine. Here is the method: By way of illustrative example, bovine kidney cortex cell membranes or bovine trachea apical cell membranes are collected and pooled until the pooled membranes contain about 100 mg of protein as determined by the Lowry method. The pooled membranes in 100 mM HEPES, pH 7.4, are centrifuged at 40,000 g for 30 minutes. The pelleted material was resuspended in 100 mM HEPES, pH 7.4, containing 3% sodium cholate (4.5-5.5 mg of membrane protein/3 ml of solution) containing in addition bacitracin (100 microgram/g), phenylmethylsulfonyl fluoride (0.5%) and iodoacetamide (1 mM). The mixture is chilled on ice for 60 minutes with occasional agitation, then centrifuged at 40,000 g for 30 minutes. The supernatant, containing the solubilized protein, may be purified immediately or frozen at -70° for later purification.
The solubilized protein preparation obtained from about 10 g of cell membrane is purified using 100 ml of the affinity gel described in Example 2. The protein solution and gel are stirred overnight in the cold. The gel is washed with 20 volumes of HEPES solution, pH 7.2, by filtration. The adsorbed protein is eluted with 10^-3 M amiloride in dilute saline containing 0.5% cholate by stirring for two hours. The elution was repeated and the combined eluates are dialyzed against 100 mM HEPES/1% sodium cholate for one week in the cold, changing buffers once or twice a day. […]

Test [2] deals with T2, Na^+ channel in crude membrane preparation (trachea epithelial) (Bos taurus, UniProt A5D7U4+F1MJW3+P55270).
T2 construct: results for both the purified reconstituted channel protein and for the crude membrane preparation; from tissue; host or cells: trachea epithelial membranes, crude preparation (bovine)
T2 sequence (P55270 1-650): T1 sequence (P55270 1-650)
T2 sequence (A5D7U4 1-641): T1 sequence (A5D7U4 1-641)
T2 sequence (F1MJW3 1-652): T1 sequence (F1MJW3 1-652)
Nature of the test: Amiloride inhibition of crude membrane preparation. The format is biochemical, bovine.

As a reminder, the IC50 is the concentration needed to halve the response being measured. A lower IC50 goes with higher potency. On to `N=C(N)NC(=O)c1nc(Cl)c(N)nc1N` [amiloride, 3,5-diamino-N-(aminoiminomethyl)-6-chloropyrazinecarboxamide], for which the IC50 was 70 nM in test [1] (Amiloride, IC50 (micromolar), PURIFIED, Table I, trachea epithelial, purified reconstituted channel protein); approximately 70 nM in test [1] (IC50 (amiloride sensitivity of purified channel), purified channel); 100 nM in test [2].

The record behind these values is patent publication US4950591A, “Membrane Na^+ channel protein and related therapeutic compounds” (priority 1987, dated 1990).
